Assay results reported in PubChem BioAssay AID1996.
Converted amounts (≈) assume the structure as drawn.

conditions: buffer; pH 7.4; 200.0 µM

Structure (SMILES)	solubility kinetic [µg/mL]
CC1(C(=O)OCC(=O)Nc2ccccc2)CC1(Cl)Cl (stereo not given)	35 (≈ 116 µM)
Cc1ccc(OCC(=O)OCC(=O)Nc2ccc3c(c2)OCO3)cc1C	9.6 (≈ 26.9 µM)
O=C1NC(=O)N(c2ccccc2)C(=O)/C1=C\c1ccccc1[N+](=O)[O-]	> 50.6
Cc1cccc(NC(=S)NCC(C)CSc2ccc(Cl)cc2)c1 (stereo not given)	< 0.4
O=C(CNC(=O)c1ccco1)OCc1ccccc1F	> 41.6
COC(=O)c1ccc(NC(=O)CCOc2ccccc2)cc1	4.5 (≈ 15 µM)
CCN(C(=O)CSc1nnc(C)c(=O)[nH]1)c1cccc2ccccc12	> 53.2
O=Cc1c(NCc2ccc(F)cc2)c2ccccc2[nH]c1=O	2.6 (≈ 8.77 µM)
CC1CCN(CCc2nc3cc(NC(=O)C(C)C)ccc3n2C)CC1	36.7 (≈ 107 µM)
Cc1cccc(C(=O)OCc2cncs2)c1	28.9 (≈ 124 µM)
O=C(Nc1ccc2c(c1)CCC2)Nc1ccccc1F	1.6 (≈ 5.92 µM)
CCC(=O)c1ccc(OCC(=O)Nc2nc(C)cs2)cc1	8.9 (≈ 29.2 µM)
CN(C)CCNc1cnn(-c2ccccc2)c(=O)c1Cl	> 43.9
Nn1c(SCC(=O)Nc2ccc3c(c2)OCO3)nncc1=O	> 48.2
COc1ccc(NC(=S)NC(=O)C2CCCCC2)cc1	< 0.3
Cc1c(C(=O)Nc2c(C)n(C)n(-c3ccccc3)c2=O)oc2ccc(Cl)cc12	> 59.4
CCN(CC)c1ccc(NC(=O)CN(C)Cc2cccs2)cc1	39.1 (≈ 118 µM)
CCCCN1C(=O)C(=O)N(CC(=O)Nc2ccc(OC(F)(F)F)cc2)C1=O	6.6 (≈ 17 µM)
O=C(CCCc1nc(-c2ccccc2)no1)NC1CCCC1	> 44.9
CC(CCc1ccccc1)NC(=O)CSc1ccccn1 (stereo not given)	34.6 (≈ 115 µM)
Cc1onc(-c2ccccc2)c1C(=O)NC(C)CCc1ccccc1 (stereo not given)	1.1 (≈ 3.29 µM)
Cc1ccc(NC(=O)CN(C)C(=O)c2ccc(Cl)c(S(=O)(=O)NCc3ccco3)c2)cc1	9 (≈ 18.9 µM)
O=C1NC(c2ccc(Cl)cc2)Oc2ccccc21 (stereo not given)	1.7 (≈ 6.55 µM)
O=C(NC(=S)Nc1ccccc1Cl)C1CC1	> 38.2

Structure (SMILES)	solubility kinetic [µg/mL]
Cc1nnc(SCC(=O)Nc2ccc(S(N)(=O)=O)cc2)n(N)c1=O	> 55.6
CC1(C)CC(=O)N(c2cc(Cl)ccc2Cl)C(=O)C1	14.7 (≈ 51.4 µM)
COc1ccc(CN(C)CC(=O)Nc2ccccc2C(=O)NC2CC2)cc1F	56 (≈ 145 µM)
CC(=O)Nc1ccc(N2Cc3ccccc3C2)cc1	18.7 (≈ 74.1 µM)
COc1cccc(N2CCN(CC(=O)NCc3ccccc3)CC2)c1	50.3 (≈ 148 µM)
COc1cccc(NS(=O)(=O)c2ccc3c(c2)CC(=O)N3)c1	> 47.8
CCn1c(C)c(C(=O)NCCc2ccccc2)c2cc(OC)ccc21	23 (≈ 68.4 µM)
Cc1cnc(NC(=O)c2c(-c3ccccc3)noc2C)s1	39.8 (≈ 133 µM)
COc1ccccc1NC(=O)NCC1CC1(Cl)Cl (stereo not given)	42.1 (≈ 146 µM)
CCC(CC)NC(=O)CO/N=C/c1ccc(Cl)cc1Cl	3 (≈ 9.46 µM)
CCC(=O)Oc1ccc(C2NC(=O)c3ccccc3O2)cc1OC (stereo not given)	28.5 (≈ 87.1 µM)
Brc1cnc2nc(SC/C=C/c3ccccc3)[nH]c2c1	0.3 (≈ 0.866 µM)
Cc1ccc(C(=O)NCCCN2CCOCC2)c(Cl)c1	> 44.5
NC(=O)C1CCN(C(=O)CCC(=O)c2cccs2)CC1	> 44.2
CC(C)(C)S(=O)(=O)/C(C#N)=C/c1sccc1C1OCCO1	35.4 (≈ 108 µM)
O=C(NCCCc1nc2ccccc2[nH]1)c1ccc(F)cc1	> 44.6
COc1ccnc2c1c(=O)n(Cc1ccc(F)cc1)c(=O)n2C	25.2 (≈ 79.9 µM)
Cc1cc(C(=O)NCCc2ccc(S(N)(=O)=O)cc2)c(C)o1	> 48.4
CCN(CC)C(=S)Nc1c(C)n(C)n(-c2ccccc2)c1=O	> 47.8
O=S(=O)(NC1CCCCC1)c1ccc(N2CCOCC2)nc1	> 48.8
Cc1cc2nc(/N=C(\N)NC(=O)C(C)C)nc(C)c2cc1C	2.9 (≈ 9.69 µM)
Cn1cc(C(=O)CCl)c2ccccc21	> 31.1
CC1CN(C(=O)c2cccs2)CC(C)O1 (stereo not given)	32.4 (≈ 144 µM)
O=C(Nc1ccc(NC(=O)C2CC2)cn1)c1ccccc1	41.6 (≈ 148 µM)

Structure (SMILES)	solubility kinetic [µg/mL]
CN1CCN(c2nc(-c3ccc(Cl)cc3)cc(=O)[nH]2)CC1	39.8 (≈ 131 µM)
O=S(=O)(c1ccc(Cl)s1)N1CCNCC1	> 40
C1N2CN3CN1CN(C2)C3	> 21
COc1ccc(NC(=O)CN2CCc3ccccc3C2)cc1OC	> 49
O=C(COC(=O)c1ccc(F)c(S(=O)(=O)N2CCOCC2)c1)NCc1ccccc1	> 65.5
O=S(=O)(Nc1ccc(-c2cnco2)cc1)c1ccccc1	43.6 (≈ 145 µM)
O=C(NC1CCN(C(=O)c2cccs2)CC1)c1ccccc1	46.1 (≈ 147 µM)
N/C(CC(=O)Nc1ccc(F)c(Cl)c1)=N\OC(=O)c1cccs1	2.4 (≈ 6.75 µM)
Fc1ccccc1Nc1nc2ccccc2o1	16.9 (≈ 74 µM)
CCNc1nc(NC(C)CC)nc(ON=C(C)C)n1 (stereo not given)	> 40
Cn1c(=O)c(Sc2ccccc2)c(O)c2ccccc21	> 42.5
O=c1[nH]c(-c2ccccc2)ncc1Oc1ccccc1	33.7 (≈ 128 µM)
O=C(O)c1ccccc1N1C(=O)C2C3CCC(C3)C2C1=O (stereo not given)	39.5 (≈ 138 µM)
COc1ccc(CCN2C(=O)C(C)=C(C)C2=O)cc1OC	> 43.4
COC(=O)c1cnc(Oc2c(Cl)cc(N)cc2Cl)cc1C(F)(F)F	15.3 (≈ 40.1 µM)
COc1cccc(C(=O)Nc2ccc(NC(=O)Cc3ccccc3)cc2)c1	< 0.4
O=S(=O)(Nc1ccc2c(c1)OCCO2)c1cccc(F)c1	> 46.4
O=c1[nH]c(=O)n(CCc2ccccc2)c(O)c1C=NC1CC1	10.3 (≈ 34.4 µM)
Cc1cc(OCC(O)CNC(C)c2ccccc2)ccc1C(C)C.Cl (stereo not given)	45.3
Nc1ccc(S(=O)(=O)Nc2nc3ccccc3o2)cc1	> 43.4
Cc1cc2c(OCC(O)CNCc3ccco3)cccc2[nH]1 (stereo not given)	43.4 (≈ 144 µM)
Cc1ccc(SCCN2CCN(C)CC2)cc1.Cl	35.5
CC(=O)c1cccc(NC(=O)c2cnccn2)c1	> 36.2
O=C(Cc1ccccc1)NCC(=O)N1CCCC1	> 36.9

Structure (SMILES)	solubility kinetic [µg/mL]
COc1ccccc1CNC(=O)CN1C(=O)NC2(CCCCCCC2)C1=O	> 56
Cc1cccc(N2CCN(C(=O)/C=C/c3cccs3)CC2C)c1 (stereo not given)	22.8 (≈ 69.8 µM)
COc1ccc(CCC(=O)NC2CCCc3ccccc32)cc1OC (stereo not given)	47.5 (≈ 140 µM)
CC1(C)CC2=C(CO1)C(=S)NC(c1ccccc1)N2CC1CCCO1 (stereo not given)	45.3 (≈ 126 µM)
Oc1ccc(CN2CCN(c3ncccn3)CC2)cc1	34.2 (≈ 127 µM)
COc1cc(OC)cc(C(=O)Nc2nnc(-c3cccnc3)o2)c1	> 48.9
C=CCNC(=S)Nc1ccc(Cl)cc1F	> 36.7
O=c1c(C/C=C/c2ccccc2)c(O)ccn1Cc1cccc(Cl)c1	< 0.8
O=C(COC(=O)c1ccc2ncsc2c1)Nc1ccc(OC(F)(F)F)cc1	4.4 (≈ 11.1 µM)
Cc1ccc(NC(=O)CCCc2ccccc2)c([N+](=O)[O-])c1	4.5 (≈ 15.1 µM)
CCn1c(SCc2ccc(F)cc2)nc2ccccc2c1=O	0.5 (≈ 1.59 µM)
Cc1ccc2c(c1)N(CC(=O)N1CCCCCC1)C(=O)C(C)O2 (stereo not given)	> 47.5
CCCc1cc(=O)[nH]c(SCC(=O)Nc2c(C)n(C)n(-c3ccccc3)c2=O)n1	> 62
Cc1ccc(S(=O)(=O)NC(=O)COc2ccccc2)cc1	> 45.8
O=C1CSC(=Nc2cccc(C(=O)O)c2)N1	> 35.4
Cc1ccc(NC(=O)CN(C)C(=O)/C=C/c2ccc3c(c2)OCO3)cc1	6.8 (≈ 19.3 µM)
C1=C(c2c[nH]c3ccccc23)CCN(Cc2ccccc2)C1	7.2 (≈ 25 µM)
C=CCN1C(=O)C(Cc2ccccc2Cl)SC1=Nc1ccc(C(=O)O)cc1 (stereo not given)	> 60.1
OCc1c[nH]c(=S)n1CCOc1cccc(C(F)(F)F)c1	5.5 (≈ 17.3 µM)
O=C(CNC(=O)c1ccccc1)Oc1cccc(Cl)c1	> 43.5
N#C/C(=C/c1ccncc1)c1nc2ccccc2c(=O)[nH]1	> 41.1
CCOc1ccccc1C(=O)NCC(=O)NCCCSc1ccccc1	2.5 (≈ 6.71 µM)
Nc1nc(Nc2cccc(Cl)c2)nc(NCCO)c1[N+](=O)[O-]	6.5 (≈ 20 µM)
OC1CCN(CC(O)C(F)(F)F)CC1 (stereo not given)	> 32

Structure (SMILES)	solubility kinetic [µg/mL]
C=CCON/C(CCC)=C1\C(=O)CC(C)(C)CC1=NC	34.9 (≈ 125 µM)
NS(=O)(=O)c1ccc(NC(=S)NC(=O)C2CCCCC2)cc1	> 51.2
CCCc1nc2ccc(N)cc2c(=O)n1Cc1ccccc1Cl	13 (≈ 39.7 µM)
O=C(COC(=O)/C=C/c1ccc2c(c1)OCO2)NCc1ccccc1	1.5 (≈ 4.42 µM)
O=c1cc([O-])n(C2CCCCCC2)c(=O)[nH]1.[NH4+]	30
O=C(Nc1cccc2ccccc12)c1ccccc1Cl	1.7 (≈ 6.03 µM)
Cc1ccc(NC(=O)C2=C(C(=O)O)CCCC2)cc1F	26.9 (≈ 97 µM)
CN(C)S(=O)(=O)c1ccc(C(=O)Nc2ccc3nc(N4CCOCC4)sc3c2)cc1	4.1 (≈ 9.18 µM)
CCOC(=O)C1=C(C)NC(C)=C(C(=O)OCC)C1C(=O)OCC(=O)NC1CCCCC1	> 65.5
CCn1c(SCc2cccc(F)c2)nc2c(c1=O)SCC2	11.2 (≈ 34.7 µM)
Cc1cccc(C(=S)N2CCOCC2)n1	> 33.3
O=C(O)Cc1c(-c2ccccc2)c2cc(Br)ccc2[nH]c1=O	50.2 (≈ 140 µM)
CN(C)C(=O)Oc1ccc(Br)c2ccccc12	35 (≈ 119 µM)
Cc1csc(NC(=O)c2cccc([N+](=O)[O-])c2C(=O)O)n1	> 46.1
CSc1ccc(CN2CCN(C(=O)Cc3ccccc3)CC2)cc1	28.9 (≈ 84.9 µM)
CCN(CC)c1ccc(N2C(=O)/C(=C/c3ccccn3)SC2=S)cc1	< 0.3
COc1cc2c(cc1OC)C(=S)NC1(CCCC1)C2	5.5 (≈ 19.8 µM)
CN(C)c1cccc(C(=O)NCCCn2ccc3ccccc32)c1	23 (≈ 71.6 µM)
CC(=O)Nc1ccc(OCC(=O)NCCc2ccccc2)cc1	> 46.9
COc1ccc(CCNC(=S)Nc2ccccc2)cc1	41.1 (≈ 144 µM)
S=c1[nH]cc(-c2ccc(Cl)cc2)n1Cc1ccccc1	< 0.3
CC[C@H](C)[C@H](NC(N)=O)C(=O)Nc1ccc2c(c1)OCO2	38.6 (≈ 132 µM)
O=C1ON=C(c2ccccc2)/C1=C\c1ccco1	35.2 (≈ 147 µM)
Cl.O=S(=O)(N1CCCCCC1)N1CCNCC1	> 42.6
